Among the test systems are A549; CAKI-1; CCRF-CEM; DU-145; HCT-15; HOP-62; K562; KM-20L2; LOX IMVI; M14; MCF7; MDA-MB-435; NCI-H460; OVCAR-5; RPMI-8226; RXF 393; SF-268; SF-539; U-251; UACC-62.
Assay in all cases: inhibition of tumour cell growth, NCI panel, 48 h

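Compound exposure: 48 hours, 5 concentrations, 96-well plates. GI50 = concentration required for 50% inhibition of growth.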 Active and inactive are the calls of the source. No stated cut-off is given here; in the data, active = GI50 up to about 1.1 µM and inactive = higher.

With `Clc1ccc(C(c2ccccc2Cl)C(Cl)Cl)cc1` (stereo not given) [MITOTANE], the GI50 with A549 was 15.1 µM (inactive); in the experiment on CAKI-1 it was 13.1 µM (inactive); in the experiment with CCRF-CEM, 17.7 µM (inactive); in the experiment with DU-145, 3.3 µM (inactive); with HCT-15, 15.8 µM; in the experiment on HOP-62 it was 18.2 µM (inactive). Besides, the GI50 in the experiment on K562 is 16.3 µM (inactive); in the experiment with KM-20L2, 16.9 µM (inactive); in the experiment with LOX IMVI, 21.3 µM (inactive); in the experiment on M14 it was 19.3 µM (inactive); in the experiment with MCF7 it was 19.2 µM (inactive); in the experiment with MDA-MB-435 it was 3.08 µM (inactive). Moreover, the GI50 in the experiment on NCI-H460 is 17.3 µM (inactive); in the experiment with OVCAR-5 it was 18 µM (inactive); in the experiment on RPMI-8226, 14.5 µM (inactive); in the experiment on RXF 393, 11.6 µM (inactive); in the experiment on SF-268, 18.5 µM (inactive); with SF-539 it was 17.1 µM (inactive). Moreover, the GI50 with U-251 is 16.6 µM (inactive); in the experiment with UACC-62 it was 14.8 µM (inactive).

On to `CC1c2ccccc2Cn2cc3c(c21)C(=O)c1cccc(OP(=O)(O)OCc2ccccc2)c1C3=O` (stereo not given), for which the GI50 was > 100 µM (inactive) in the experiment with A549; > 82.8 µM (inactive) with CAKI-1; > 56 µM (inactive) in the experiment with CCRF-CEM; > 100 µM (inactive) in the experiment with DU-145; greater than 100 µM with HCT-15; > 100 µM (inactive) in the experiment on HOP-62. The GI50 is > 74.6 µM (inactive) in the experiment on K562; > 100 µM (inactive) in the experiment with KM-20L2; > 100 µM (inactive) in the experiment with LOX IMVI; > 100 µM (inactive) in the experiment with M14; 71.9 µM (inactive) with MCF7; > 100 µM (inactive) in the experiment on MDA-MB-435. Further, the GI50 in the experiment on NCI-H460, in the experiment on OVCAR-5, in the experiment with RPMI-8226, in the experiment on RXF 393, in the experiment with SF-268 and with SF-539 was > 100 µM (inactive) in each case. Further, the GI50 with U-251 and with UACC-62 was > 100 µM (inactive) throughout.

The values above are taken from ChEMBL document CHEMBL1201862, “PubChem BioAssay data set” (2004).
